Measurements from publication PMC11025159 (Journal of Translational Medicine, 2024).

What was measured:
IGF-1R = molecular target: T1, IGF-1R (Homo sapiens, UniProt P08069); experiment: Cell-free kinase assay IGF-1R; type: biochemical
T1 construct: purchased Promega Corporation V3581
Procedure: (§1) The cell-free kinase assays of small molecules were determined by following the manufacturer-recommended protocols. Different concentrations in triplicate were used to determine the IC50 value of the hit molecules (active molecules). For data analysis, GraphPad Prism V9.5 Software and a sigmoidal dose–response (variable slope) equation were used. Each value represents an average of three replicates per concentration.

human hair follicles = experiment: Human hair follicle organ culture ex-vivo; settings: 20 days culture, vs vehicle and untreated follicles
Procedure: Hair follicles were collected from three single donors of androgenetic alopecia undergoing hair transplant surgery at the Department of Dermatology, All India Institute of Medical Sciences, New Delhi, India. All experimental procedures were approved by the Institutional Ethics Committee […] of AIIMS, New Delhi (IEC approval No: 550/01.09.2023). Donors were above 18 years of age. Isolated hair follicles were cultured as per the previously described method of Philpott et al.. Immediately after isolation, follicles were placed in 24 well plates under sterile conditions into ice-cold Williams’ medium E (Sigma) with the different concentrations of MJ04 for 20 days. Half media was replaced with fresh media every 3rd day for 20 days. Basal length, i.e., length on the day of starting culture and post treatment was measured. Photographs were taken with a Nikon digital camera.

JAK1 = molecular target: T2, JAK1 (Homo sapiens, UniProt P23458); experiment: Cell-free kinase assay JAK1; type: biochemical
T2 construct: purchased Promega Corporation VA7207
T2 sequence (P23458 whole entry): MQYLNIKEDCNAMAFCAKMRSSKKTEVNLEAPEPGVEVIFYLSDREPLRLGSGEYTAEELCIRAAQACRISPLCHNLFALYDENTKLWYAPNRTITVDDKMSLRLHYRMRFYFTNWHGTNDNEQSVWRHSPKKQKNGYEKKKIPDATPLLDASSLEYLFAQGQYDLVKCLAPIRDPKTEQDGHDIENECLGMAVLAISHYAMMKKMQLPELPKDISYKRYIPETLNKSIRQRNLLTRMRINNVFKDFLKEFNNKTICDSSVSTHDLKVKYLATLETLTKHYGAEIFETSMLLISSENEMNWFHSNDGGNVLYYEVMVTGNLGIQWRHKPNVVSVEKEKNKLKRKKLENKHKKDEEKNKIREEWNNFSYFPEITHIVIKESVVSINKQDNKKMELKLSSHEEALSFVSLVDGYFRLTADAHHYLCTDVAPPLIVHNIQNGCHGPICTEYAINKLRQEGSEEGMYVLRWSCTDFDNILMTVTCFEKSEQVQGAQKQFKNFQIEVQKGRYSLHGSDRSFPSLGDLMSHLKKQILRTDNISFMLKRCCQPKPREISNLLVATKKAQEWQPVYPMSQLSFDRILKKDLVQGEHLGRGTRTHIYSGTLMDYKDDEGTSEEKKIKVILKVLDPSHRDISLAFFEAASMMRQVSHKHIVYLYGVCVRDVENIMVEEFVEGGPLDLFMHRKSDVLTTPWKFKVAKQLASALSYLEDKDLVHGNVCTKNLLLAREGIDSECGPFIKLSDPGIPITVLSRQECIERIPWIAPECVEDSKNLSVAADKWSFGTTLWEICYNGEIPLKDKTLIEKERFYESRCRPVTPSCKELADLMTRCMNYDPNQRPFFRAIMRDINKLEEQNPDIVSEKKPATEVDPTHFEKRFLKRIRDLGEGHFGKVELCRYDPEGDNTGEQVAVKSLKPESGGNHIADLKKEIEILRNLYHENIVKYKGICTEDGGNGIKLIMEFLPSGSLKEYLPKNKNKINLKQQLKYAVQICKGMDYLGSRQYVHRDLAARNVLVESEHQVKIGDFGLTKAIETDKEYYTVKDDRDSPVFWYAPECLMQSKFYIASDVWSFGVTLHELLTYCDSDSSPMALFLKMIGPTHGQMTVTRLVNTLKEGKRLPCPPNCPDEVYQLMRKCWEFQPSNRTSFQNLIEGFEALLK
Procedure: as §1

hERG channels = molecular target: T3, hERG channels (Homo sapiens, UniProt Q12809); experiment: hERG channel assay, whole cell patch clamp; type: cell-based
T3 construct: host or cells: HEK293
T3 sequence (Q12809 whole entry): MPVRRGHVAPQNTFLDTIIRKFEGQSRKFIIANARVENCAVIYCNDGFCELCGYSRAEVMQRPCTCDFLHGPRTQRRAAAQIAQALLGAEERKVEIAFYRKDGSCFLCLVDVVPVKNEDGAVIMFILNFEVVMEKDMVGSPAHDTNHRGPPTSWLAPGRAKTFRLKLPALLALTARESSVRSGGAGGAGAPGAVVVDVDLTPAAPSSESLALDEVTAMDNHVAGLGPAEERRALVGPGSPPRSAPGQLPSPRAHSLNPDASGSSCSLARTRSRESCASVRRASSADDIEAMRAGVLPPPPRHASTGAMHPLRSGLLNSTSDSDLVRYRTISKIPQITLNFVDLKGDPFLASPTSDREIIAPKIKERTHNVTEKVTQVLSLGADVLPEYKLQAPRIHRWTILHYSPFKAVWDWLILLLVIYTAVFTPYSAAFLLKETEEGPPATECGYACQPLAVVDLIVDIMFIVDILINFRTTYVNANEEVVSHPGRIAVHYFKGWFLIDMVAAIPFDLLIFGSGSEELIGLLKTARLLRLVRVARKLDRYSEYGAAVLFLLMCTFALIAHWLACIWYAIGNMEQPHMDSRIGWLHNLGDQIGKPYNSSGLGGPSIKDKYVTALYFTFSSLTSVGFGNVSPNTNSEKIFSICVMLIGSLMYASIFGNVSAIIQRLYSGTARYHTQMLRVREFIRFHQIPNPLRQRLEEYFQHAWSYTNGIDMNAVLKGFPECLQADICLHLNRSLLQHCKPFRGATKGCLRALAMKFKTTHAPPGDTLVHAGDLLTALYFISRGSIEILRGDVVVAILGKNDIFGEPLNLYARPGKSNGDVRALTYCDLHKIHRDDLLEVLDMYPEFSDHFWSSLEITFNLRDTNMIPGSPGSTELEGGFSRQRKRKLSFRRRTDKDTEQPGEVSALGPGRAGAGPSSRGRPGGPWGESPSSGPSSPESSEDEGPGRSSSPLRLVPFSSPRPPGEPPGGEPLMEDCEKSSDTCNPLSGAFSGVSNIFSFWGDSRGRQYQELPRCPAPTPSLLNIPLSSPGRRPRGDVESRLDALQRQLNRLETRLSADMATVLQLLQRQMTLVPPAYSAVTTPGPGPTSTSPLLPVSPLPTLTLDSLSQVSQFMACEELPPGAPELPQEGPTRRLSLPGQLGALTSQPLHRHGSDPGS

GSK-3-β = molecular target: T4, GSK-3-β (Homo sapiens, UniProt P49841); experiment: Cell-free kinase assay GSK-3-β; type: biochemical
T4 construct: purchased Promega Corporation V1991
T4 sequence (P49841 whole entry): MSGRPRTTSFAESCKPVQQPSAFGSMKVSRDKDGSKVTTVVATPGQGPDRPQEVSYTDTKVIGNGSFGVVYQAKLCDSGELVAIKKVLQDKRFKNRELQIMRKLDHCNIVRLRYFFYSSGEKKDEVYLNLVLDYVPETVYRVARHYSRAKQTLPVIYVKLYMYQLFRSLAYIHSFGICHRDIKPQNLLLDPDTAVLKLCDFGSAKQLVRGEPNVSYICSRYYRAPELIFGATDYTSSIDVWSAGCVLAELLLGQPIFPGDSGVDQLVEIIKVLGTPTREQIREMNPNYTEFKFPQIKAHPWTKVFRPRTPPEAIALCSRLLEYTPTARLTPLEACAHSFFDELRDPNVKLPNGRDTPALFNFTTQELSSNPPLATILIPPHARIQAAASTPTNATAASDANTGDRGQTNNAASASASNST
Procedure: as §1

[1] = Acute dermal toxicity (OECD 402) in Wistar rats
A549 = experiment: MTT cell viability assay A549; type: cell-based, human; settings: Homo sapiens, A549, 48 h
Procedure: Cell viability was evaluated using an MTT colorimetric assay. Cells were seeded (10^5 cells/mL) in 96-well plates and allowed to grow overnight at 37 ℃ with 5% CO2 in a cell-culture incubator. On the following day, the cells were treated with small molecules at different concentrations (0.2–10 micro-molar) or vehicle (DMSO). Cells were then further incubated for 48 h.

JAK3 = molecular target: T5, JAK3 (Homo sapiens, UniProt P52333); experiment: Cell-free kinase assay JAK3; type: biochemical
T5 construct: purchased Promega Corporation V3701
T5 sequence (P52333 1-1124): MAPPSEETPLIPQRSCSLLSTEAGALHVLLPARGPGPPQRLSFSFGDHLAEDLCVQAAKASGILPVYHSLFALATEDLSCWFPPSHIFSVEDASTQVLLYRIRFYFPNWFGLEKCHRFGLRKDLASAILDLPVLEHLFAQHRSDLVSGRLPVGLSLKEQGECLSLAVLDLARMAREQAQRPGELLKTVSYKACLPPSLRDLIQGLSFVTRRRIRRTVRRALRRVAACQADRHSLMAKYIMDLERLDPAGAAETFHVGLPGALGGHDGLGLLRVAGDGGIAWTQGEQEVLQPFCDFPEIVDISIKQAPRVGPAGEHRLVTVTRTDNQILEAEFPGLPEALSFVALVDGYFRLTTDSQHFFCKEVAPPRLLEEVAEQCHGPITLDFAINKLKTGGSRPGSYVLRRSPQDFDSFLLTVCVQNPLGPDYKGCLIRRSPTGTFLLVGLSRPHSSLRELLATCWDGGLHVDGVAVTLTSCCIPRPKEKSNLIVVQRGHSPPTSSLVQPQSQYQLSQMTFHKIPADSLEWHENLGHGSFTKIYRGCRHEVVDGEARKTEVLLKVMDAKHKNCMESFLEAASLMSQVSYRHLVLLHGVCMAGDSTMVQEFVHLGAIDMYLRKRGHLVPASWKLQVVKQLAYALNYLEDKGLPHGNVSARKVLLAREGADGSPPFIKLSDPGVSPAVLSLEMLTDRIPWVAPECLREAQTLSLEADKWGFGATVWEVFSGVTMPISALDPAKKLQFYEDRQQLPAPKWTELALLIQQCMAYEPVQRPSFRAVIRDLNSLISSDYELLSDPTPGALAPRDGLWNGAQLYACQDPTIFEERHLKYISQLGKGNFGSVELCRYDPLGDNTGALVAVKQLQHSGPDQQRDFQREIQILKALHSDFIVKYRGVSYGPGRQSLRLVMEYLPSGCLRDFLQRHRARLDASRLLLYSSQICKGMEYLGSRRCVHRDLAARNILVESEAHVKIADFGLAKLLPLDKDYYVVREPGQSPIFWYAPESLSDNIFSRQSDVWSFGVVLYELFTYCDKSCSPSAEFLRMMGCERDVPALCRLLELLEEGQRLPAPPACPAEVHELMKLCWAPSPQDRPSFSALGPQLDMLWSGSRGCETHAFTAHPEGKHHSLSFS
Procedure: as §1

[2] = Stability of the formulation used for in vivo studies (HPLC); type: physicochemical; settings: ethanol / ethanol:PEG-300, room temperature, 0-48 h
Procedure: The stability study of the lead compound (MJ04) was performed using HPLC analysis wherein the samples were studied after different time intervals. The 0.6 mg of MJ04 was taken and dissolved in 1 mL of ethanol to achieve 0.6 mg/mL concentration. Out of this, 500 µL was further diluted to 0.3 mg/mL by adding 500 µL ethanol to it (Ethanol sample). To remaining 500 µL, we added 500 µL PEG-300 to achieve final concentration of 0.3 mg /mL (Ethanol:PEG sample). HPLC of these samples was performed at various time points (0 h, 12 h, 24 h and 48 h) upon incubating at room temperature. The HPLC of samples was performed by RP-18 end capped; […], 4.6 × 250 mm. The mobile phase containing water (30%) and acetonitrile (70%) was used at the flow rate of 1 mL/min at a column temperature of 27 °C at 210 nm wavelength. A volume of 5 µL of sample was injected and the total run time of the assay was 30 min using the isocratic technique in the HPLC system.

T1 sequence (P08069 31-1367): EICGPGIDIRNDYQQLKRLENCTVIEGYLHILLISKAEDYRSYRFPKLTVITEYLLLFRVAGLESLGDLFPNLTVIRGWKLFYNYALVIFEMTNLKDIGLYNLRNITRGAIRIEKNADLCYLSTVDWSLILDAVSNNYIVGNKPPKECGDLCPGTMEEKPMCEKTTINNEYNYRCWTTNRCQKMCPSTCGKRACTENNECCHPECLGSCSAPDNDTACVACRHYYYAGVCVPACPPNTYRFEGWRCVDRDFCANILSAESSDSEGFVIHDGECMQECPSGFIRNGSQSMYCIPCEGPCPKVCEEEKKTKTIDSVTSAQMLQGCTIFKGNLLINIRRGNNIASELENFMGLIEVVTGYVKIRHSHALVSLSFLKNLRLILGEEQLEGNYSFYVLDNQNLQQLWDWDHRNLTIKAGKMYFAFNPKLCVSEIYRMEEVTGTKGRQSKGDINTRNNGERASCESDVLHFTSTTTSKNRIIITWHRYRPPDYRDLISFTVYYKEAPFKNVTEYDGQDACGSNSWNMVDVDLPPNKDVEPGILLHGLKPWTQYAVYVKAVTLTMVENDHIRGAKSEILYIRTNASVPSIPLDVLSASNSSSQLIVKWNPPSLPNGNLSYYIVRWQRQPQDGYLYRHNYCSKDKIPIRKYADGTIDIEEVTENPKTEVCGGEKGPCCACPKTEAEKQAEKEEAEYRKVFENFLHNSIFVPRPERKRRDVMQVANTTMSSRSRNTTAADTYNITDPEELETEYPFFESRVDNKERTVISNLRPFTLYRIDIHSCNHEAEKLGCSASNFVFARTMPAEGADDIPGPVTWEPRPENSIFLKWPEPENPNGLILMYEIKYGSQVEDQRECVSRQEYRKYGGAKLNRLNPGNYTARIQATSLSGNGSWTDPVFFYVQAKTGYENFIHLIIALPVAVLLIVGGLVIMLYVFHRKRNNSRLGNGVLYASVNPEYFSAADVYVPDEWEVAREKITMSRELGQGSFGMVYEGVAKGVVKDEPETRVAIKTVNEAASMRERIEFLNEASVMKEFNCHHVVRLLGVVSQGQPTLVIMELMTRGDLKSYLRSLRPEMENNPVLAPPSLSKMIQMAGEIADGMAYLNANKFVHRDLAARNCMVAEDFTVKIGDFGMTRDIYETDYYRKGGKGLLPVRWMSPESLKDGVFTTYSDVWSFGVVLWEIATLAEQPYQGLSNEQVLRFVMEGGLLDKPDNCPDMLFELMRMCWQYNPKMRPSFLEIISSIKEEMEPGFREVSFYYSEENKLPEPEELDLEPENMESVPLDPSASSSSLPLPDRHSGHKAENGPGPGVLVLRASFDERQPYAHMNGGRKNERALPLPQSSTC

For `Fc1ccc(-c2cnc3[nH]cc(-c4ccnc(NC5CC5)n4)c3c2)cc1` [MJ04], the “Fold of selectivity vs. JAK3” value (IGF-1R; IGF-1R) was 476, the IC50 (IGF-1R; Km ATP) was 967 nM and the “length of hair shafts” value (human hair follicles) was “significantly increased the length of hair shafts”. The IC50 (JAK1; 1mM ATP) was > 10000 nM, the “Fold of selectivity vs. JAK3” value (JAK1; JAK1) was 95 and the IC50 (JAK1; Km ATP) was 193 nM. The “reduction of hERG outward tail current” value (hERG channels; 10 μM) was 7.1 ± 2%, the “inhibitory effect on hERG, fold less than that of Tofacitinib” value (hERG channels; highest concentration tested (30 μM)) was ~ 2.5 fold and the “Fold of selectivity vs. JAK3” value (GSK-3-β; GSK-3-β) was 908. The IC50 (GSK-3-β; Km ATP) was 1840 nM, the “mortality and clinical signs of toxicity” value ([1]; 2000 mg/kg body weight, single dermal dose, 14 days) was “no mortality and clinical signs of toxicity” and the LD50 at 14 days ([1]; Wistar, rat, in vivo, topical or ocular) was > 2000 mg/kg. The IC50 (A549) was 3790 nM, the IC50 (JAK3; 1mM ATP) was 28.5 nM and the “Fold of selectivity vs. JAK3” value (JAK3; JAK 3) was 1. For the same compound, the IC50 (JAK3; Km ATP (2.5 µM)) was 2.03 nM, the “inhibitory activity against JAK3 in kinase assays and in MTT assays” value (JAK3; structure-activity statement) was “significant inhibitory activity” and the “stability in the formulation used for animal experiments” value [2] was “stable”.
